Measured values from publication PMC10485820 (European Journal of Pharmaceutical Sciences, 2023).
In brackets after ≈: the same amount, converted by molar mass.

What was measured:
[1] = Particle size distribution of the API (laser diffraction); type: physicochemical; conditions: dry method
Protocol: The determination was performed in a dry method with a Scirocco dry powder feeder, and the air was used as the dispersion agent ([Tari et al., 2015]). Meanwhile, the analysis results, d (0.1), d (0.5) and d (0.9) (defined as the diameter where 10%, 50% and 90% of population lies below this value), were directly output.

[2] = Renal clearance from in vivo clinical study; conditions: human, oral; Measured (in vivo); read-out: CLR (renal clearance) (converted)
From the text: The development of the DLM was complex.

[3] = Mass balance study (CTR20201559); type: in vivo, human
[4] = Radioactivity recovery in feces after oral administration to rats (unpublished); type: in vivo
OAT3 = molecular target: T1, OAT3 (Homo sapiens, UniProt Q8TCC7); assay: Preclinical transporter substrate assessment (unpublished); type: in vitro ADME
T1 sequence (Q8TCC7 1-542): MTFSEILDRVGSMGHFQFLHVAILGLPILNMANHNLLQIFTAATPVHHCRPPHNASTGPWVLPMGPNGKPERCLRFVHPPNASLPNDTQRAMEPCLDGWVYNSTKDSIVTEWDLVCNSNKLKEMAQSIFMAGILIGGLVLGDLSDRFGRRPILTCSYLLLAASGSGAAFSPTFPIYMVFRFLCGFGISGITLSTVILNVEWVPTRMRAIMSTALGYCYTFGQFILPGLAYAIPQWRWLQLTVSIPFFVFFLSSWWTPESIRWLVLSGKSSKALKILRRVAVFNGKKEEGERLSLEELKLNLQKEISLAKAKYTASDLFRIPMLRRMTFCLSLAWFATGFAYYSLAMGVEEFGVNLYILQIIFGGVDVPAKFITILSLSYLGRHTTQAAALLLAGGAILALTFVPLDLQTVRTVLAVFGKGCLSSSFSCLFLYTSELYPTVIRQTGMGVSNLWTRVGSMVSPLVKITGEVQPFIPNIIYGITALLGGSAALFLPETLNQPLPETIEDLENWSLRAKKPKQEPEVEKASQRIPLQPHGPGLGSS

MATE1 = molecular target: T2, MATE1 (Homo sapiens, UniProt Q96FL8); assay: as above; type: in vitro ADME
T2 sequence (Q96FL8 1-570): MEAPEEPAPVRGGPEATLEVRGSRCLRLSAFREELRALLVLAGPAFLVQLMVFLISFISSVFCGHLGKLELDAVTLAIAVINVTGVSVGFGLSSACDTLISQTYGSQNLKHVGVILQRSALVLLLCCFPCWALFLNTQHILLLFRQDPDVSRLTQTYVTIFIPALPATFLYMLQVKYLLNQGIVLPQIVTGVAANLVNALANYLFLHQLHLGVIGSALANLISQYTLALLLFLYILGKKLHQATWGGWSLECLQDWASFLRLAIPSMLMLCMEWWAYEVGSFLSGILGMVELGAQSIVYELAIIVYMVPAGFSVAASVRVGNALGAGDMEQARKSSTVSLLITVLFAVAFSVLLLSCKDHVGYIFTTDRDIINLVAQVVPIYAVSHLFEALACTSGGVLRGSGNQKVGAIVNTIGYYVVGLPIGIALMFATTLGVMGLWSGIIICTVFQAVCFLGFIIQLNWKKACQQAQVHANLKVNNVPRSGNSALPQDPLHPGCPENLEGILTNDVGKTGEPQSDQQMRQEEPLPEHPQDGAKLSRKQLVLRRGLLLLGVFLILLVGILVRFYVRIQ

glycosylated hemoglobin = assay: Multidose exploratory clinical study of T2DM patients (CTR20182505): glycosylated hemoglobin; type: in vivo, human; conditions: after six doses of oral administration
[5] = mass balance study, unpublished

From the text for physchem: Based on the results of the two-stage biorelevant dissolution test (see Fig. 4 in 3.2 section), the precipitation parameters in the DLM were not assessed, and the critical supersaturation ratio (CSC) and precipitation rate constant (PRC) were set to the minimum values, respectively.
Furthermore, solubility parameters, representing the influence of pH and bile salts on the solubility, were estimated by Eq. (3) according to the experimental results.
Accordingly, it was unnecessary to evaluate the precipitation parameters for the development of DLM, which (CSC and PCR) were set to minimum values in DLM. Most importantly, the dissolution parameters, such as heff and DLMs, were estimated by Eq. (4) from the dissolution profile in 300 mL FaSSGF medium. Meanwhile, the disintegration lag time of the formulation was evaluated with the method of Weibull function, so that the dissolution profile could be captured by Eq. (4).

With `CS(=O)(=O)n1cc2c(n1)CN([C@@H]1C[C@H](N)[C@@H](c3cc(F)ccc3F)O[C@@H]1C(F)(F)F)C2` [HSK7653] the “d (0.1)” value [1] was 1.313 μm, the “d (0.5)” value [1] was 3.288 μm and the “d (0.9)” value [1] was 8.163 μm. The CL renal [2] was 6.22 mL/min, the “Fecal excretion of unchanged compound” value ([3]; mass balance study) was 7.40% and the “Unchanged drug excreted by the kidney” value ([3]; mass balance study) was 68.1%. For the same molecule, the “Unrecovered radioactive substances (unknown pathway)” value ([3]; mass balance study) was 4.1%, the “Detected (recovered) radioactivity” value [3, 5] was 95.9% and the “Unextracted radioactive substrates in feces” value [3, 5] was 2.99%. For the same molecule, the “Unextracted radioactive substrates in urine” value [3, 5] was 1.99%, the “Unextracted radioactivity in urine and feces (sum)” value ([3]; sum of unextracted radioactivity in urine and feces) was “approximately 4.98%” and the “Radioactivity recovered in feces” value [4] was “approximately 62.1%”. For the same molecule, the Transporter substrate assessment (OAT3) was “not a common transport substrate”, the Transporter substrate assessment (MATE1) was “not a common transport substrate” and the Glycosylated hemoglobin change (glycosylated hemoglobin) was “significantly reduced”. It also gave a solubility (physchem) of 7 µg/mL (≈ 15 µM).
